Data reported in paper PMC11533140 (Frontiers in Pharmacology, 2024).
Like-named read-outs stand apart in the source and are kept apart here. One block for each compound: values may come before it.

Tests used:
DU145 cells = experiment: MTT antiproliferative assay, DU145; assay type: cell-based; details: Homo sapiens, DU-145
Procedure: (§1) The in vitro inhibition assays of all final compounds against PI3K were performed by Shanghai ChemPartner Co., Ltd. (China). The antiproliferative activities of the compounds against A2780, U87MG, MCF7, and DU145 cell lines were tested by the standard MTT method. CHO cells stably expressing the transcript of hERG were investigated by the automated whole-cell patch clamp technique, using the QPatch system (Sophion). The compound was tested with Salmonella typhimurium strains TA98 and TA100 with the plate incorporation method at seven doses. Apoptosis was evaluated using the One-Step TUNEL Apoptosis Assay Kit (FITC) (cat. no. MA0223; Meilunbio, Dalian, China), according to the manufacturer’s protocol. Male and female SD rats (SLRC Laboratory Animal Inc., Shanghai, China) were used, and the detailed pharmacokinetic procedures are described in Supplementary Material.

HL-7702 cells = experiment: inhibitory activity on normal cells, HL-7702; assay type: cell-based; details: Homo sapiens, L02
Text: (§2) Several clinical PI3K candidates were severely intolerable to patients due to fatal hepatotoxicity and, thus, failed in clinical trials. Thus, evaluating the selectivity of compounds toward normal cells might reduce the risk of clinical failure of new compounds.

MRC-5 cells = experiment: inhibitory activity on normal cells, MRC-5; assay type: cell-based; details: Homo sapiens, MRC5
Text: as §2

[1] = test system: Salmonella typhimurium TA100; experiment: Ames test, plate incorporation, TA100; assay type: cell-based; details: control, dose not given
Procedure: as §1
(§3) S. typhimurium TA98 and TA100 were selected to conduct the Ames experiment to investigate the genotoxicity risk of compound 17p.

MCF7 cells = experiment: MTT antiproliferative assay, MCF7; assay type: cell-based; details: Homo sapiens
Procedure: as §1

U87MG cells = experiment: MTT antiproliferative assay, U87MG; assay type: cell-based; details: Homo sapiens, U-87 MG
Procedure: as §1

[2] = test system: Salmonella typhimurium TA98; experiment: Ames test, plate incorporation, TA98; assay type: cell-based; details: control, dose not given
Procedure: as §1, §3

A2780 cells = experiment: MTT antiproliferative assay, A2780; assay type: cell-based; details: Homo sapiens
Procedure: as §1

hERG = target: T1, hERG (Homo sapiens, UniProt Q12809); experiment: hERG automated whole-cell patch clamp (QPatch), CHO cells; assay type: cell-based; details: human, CHO cells stably expressing hERG; CHO cells expressing hERG, patch clamp; read-out: IC50 on hERG potassium currents
T1 construct: expressed in transfected cells
T1 sequence (Q12809 whole entry): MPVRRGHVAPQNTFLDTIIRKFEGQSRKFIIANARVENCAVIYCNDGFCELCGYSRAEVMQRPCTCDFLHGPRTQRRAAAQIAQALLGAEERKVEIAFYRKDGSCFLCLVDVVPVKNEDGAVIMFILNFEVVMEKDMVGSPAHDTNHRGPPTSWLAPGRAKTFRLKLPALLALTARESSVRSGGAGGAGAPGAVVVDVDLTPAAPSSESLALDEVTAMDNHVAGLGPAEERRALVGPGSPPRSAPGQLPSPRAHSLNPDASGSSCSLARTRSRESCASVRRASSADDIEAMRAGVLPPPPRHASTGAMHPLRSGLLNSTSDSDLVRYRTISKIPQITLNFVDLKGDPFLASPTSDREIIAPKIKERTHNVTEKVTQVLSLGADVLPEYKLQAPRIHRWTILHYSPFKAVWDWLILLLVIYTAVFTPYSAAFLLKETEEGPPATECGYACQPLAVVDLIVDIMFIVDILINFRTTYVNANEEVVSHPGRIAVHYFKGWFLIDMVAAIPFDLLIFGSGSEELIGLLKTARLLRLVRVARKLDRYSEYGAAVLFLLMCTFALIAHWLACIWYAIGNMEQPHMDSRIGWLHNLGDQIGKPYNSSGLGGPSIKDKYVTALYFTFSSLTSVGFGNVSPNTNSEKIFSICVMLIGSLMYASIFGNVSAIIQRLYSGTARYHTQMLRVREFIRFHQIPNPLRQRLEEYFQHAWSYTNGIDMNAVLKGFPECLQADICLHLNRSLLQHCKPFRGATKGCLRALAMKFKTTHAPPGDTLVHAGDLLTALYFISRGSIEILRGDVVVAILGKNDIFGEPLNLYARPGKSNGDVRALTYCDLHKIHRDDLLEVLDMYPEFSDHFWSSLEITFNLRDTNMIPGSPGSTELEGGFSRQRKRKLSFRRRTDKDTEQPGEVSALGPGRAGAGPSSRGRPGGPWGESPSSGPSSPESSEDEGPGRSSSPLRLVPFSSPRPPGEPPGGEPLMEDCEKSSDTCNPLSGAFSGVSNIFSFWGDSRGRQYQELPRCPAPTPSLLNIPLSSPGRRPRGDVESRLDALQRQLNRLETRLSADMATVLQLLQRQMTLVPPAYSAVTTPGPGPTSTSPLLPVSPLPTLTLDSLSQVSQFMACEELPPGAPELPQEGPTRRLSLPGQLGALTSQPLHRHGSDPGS
Procedure: as §1
To evaluate cardiotoxicity, it is necessary to test inhibitory activity on hERG potassium currents.

PI3Kα = PI3Kα (Homo sapiens, UniProt P42336); experiment: in vitro PI3Kα kinase inhibition assay; assay type: biochemical
PI3Kα, sequence (P42336 whole entry): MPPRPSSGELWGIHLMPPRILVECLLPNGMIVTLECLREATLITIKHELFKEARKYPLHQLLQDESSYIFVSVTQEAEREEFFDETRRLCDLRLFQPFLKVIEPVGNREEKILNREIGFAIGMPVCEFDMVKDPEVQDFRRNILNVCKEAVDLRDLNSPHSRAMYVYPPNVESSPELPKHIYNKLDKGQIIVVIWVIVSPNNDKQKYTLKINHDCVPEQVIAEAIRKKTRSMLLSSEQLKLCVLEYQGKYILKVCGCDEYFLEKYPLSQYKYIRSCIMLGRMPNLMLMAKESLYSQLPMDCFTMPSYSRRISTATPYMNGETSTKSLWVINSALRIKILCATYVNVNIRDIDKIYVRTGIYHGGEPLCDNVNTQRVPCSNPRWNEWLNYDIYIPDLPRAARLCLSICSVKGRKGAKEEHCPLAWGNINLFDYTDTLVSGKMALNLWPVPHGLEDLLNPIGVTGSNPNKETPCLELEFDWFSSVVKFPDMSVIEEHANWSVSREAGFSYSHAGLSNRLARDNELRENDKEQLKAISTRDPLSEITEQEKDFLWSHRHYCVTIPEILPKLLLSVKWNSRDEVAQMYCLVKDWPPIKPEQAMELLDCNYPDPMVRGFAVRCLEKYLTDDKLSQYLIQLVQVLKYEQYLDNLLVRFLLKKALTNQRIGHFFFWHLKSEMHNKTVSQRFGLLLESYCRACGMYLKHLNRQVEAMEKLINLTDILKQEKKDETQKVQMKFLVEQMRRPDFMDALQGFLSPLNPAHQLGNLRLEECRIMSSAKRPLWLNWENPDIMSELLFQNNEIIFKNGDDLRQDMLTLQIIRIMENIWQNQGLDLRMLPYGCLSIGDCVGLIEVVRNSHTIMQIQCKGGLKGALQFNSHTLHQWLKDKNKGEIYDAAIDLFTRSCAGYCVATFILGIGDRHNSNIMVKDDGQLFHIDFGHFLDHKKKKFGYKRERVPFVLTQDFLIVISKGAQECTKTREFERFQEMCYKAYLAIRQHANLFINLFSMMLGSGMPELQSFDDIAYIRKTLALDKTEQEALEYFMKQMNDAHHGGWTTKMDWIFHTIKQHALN
PI3Kα, sequence (P27986 whole entry partner): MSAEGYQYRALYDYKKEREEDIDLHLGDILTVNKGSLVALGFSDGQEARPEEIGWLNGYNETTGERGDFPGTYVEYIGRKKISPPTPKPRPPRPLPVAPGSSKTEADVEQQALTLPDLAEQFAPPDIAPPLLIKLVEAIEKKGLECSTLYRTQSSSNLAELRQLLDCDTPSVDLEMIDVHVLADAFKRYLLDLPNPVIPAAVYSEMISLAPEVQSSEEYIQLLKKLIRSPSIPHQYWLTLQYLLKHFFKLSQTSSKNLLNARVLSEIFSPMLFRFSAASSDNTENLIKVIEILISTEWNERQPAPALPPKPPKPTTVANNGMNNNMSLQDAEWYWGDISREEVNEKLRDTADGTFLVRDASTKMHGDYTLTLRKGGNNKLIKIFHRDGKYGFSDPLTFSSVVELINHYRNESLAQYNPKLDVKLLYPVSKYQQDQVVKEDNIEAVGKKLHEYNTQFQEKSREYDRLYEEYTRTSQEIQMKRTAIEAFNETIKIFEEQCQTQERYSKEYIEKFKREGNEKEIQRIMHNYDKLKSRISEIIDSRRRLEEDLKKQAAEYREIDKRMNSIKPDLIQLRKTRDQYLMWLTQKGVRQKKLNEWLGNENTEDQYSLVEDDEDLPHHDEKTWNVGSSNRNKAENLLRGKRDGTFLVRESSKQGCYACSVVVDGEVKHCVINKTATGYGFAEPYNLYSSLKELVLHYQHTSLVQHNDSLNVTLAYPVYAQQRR
Procedure: as §1

[3] = mean of three independent experiments, read-out: IC50 against PI3Kα
[4] = mean of three independent experiments
[5] = Figure 5 activity bins, read-out: IC50 range in SAR figure (PI3Kα)

SMILES: Nc1cc(C(F)(F)F)c(-c2cc(N3CCOCC3)nc(N3CCOCC3)n2)cn1 [BKM-120, Buparlisib, reference compound]
IC50 (DU145 cells): 2240 ± 140 nM
IC50 (HL-7702 cells): 890 ± 60 nM
IC50 (MRC-5 cells): 980 ± 100 nM
Number of bacterial colony revertant mutations (mean ± SD) TA100 [1]: 555 ± 94
IC50 (MCF7 cells): 280 ± 40 nM
IC50 (U87MG cells): 2150 ± 190 nM
Number of bacterial colony revertant mutations (mean ± SD) TA98 [2]: 241 ± 55
IC50 (A2780 cells): 410 ± 60 nM

SMILES: COc1cc(N)c(Cl)cc1C(=O)NC1CCN(CCCOc2ccc(F)cc2)CC1OC (stereo not shown) [Cisapride, reference compound]
IC50 (hERG): 410 ± 60 nM

IC50 (PI3Kα; [3]): 2290 nM
SMILES: CCOC(=O)C1CCN(c2cc(-c3cnc(N)cc3C(F)(F)F)nc(N3CCOCC3)n2)CC1 [Compound 12a]

IC50 (PI3Kα; [3]): 685 ± 62.6 nM
SMILES: CCOC(=O)C1CCN(c2nc(-c3cnc(N)cc3C(F)(F)F)cc(N3CCOCC3)n2)CC1 [Compound 12b]

IC50 against PI3Kα (PI3Kα; [4]): no activity
IC50 (PI3Kα; [3]): > 10000 nM
SMILES: c1nn(C2CCNCC2)cc1-c1cc(N2CCOCC2)nc(N2CCOCC2)n1 [Compound 12c]

IC50 against PI3Kα (PI3Kα; [4]): poor activity
IC50 (PI3Kα; [3]): 1010 nM
SMILES: COc1ccc(-c2cc(N3CCOCC3)nc(N3CCOCC3)n2)cn1 [Compound 12d]

IC50 against PI3Kα (PI3Kα; [4]): no activity
IC50 (PI3Kα; [3]): > 10000 nM
SMILES: c1nn(C2CCNCC2)cc1-c1nc(N2CCOCC2)nc(N2CCOCC2)n1 [Compound 12e]

IC50 (PI3Kα; [3]): 371 ± 45.4 nM
SMILES: CCOC(=O)C1CCN(c2nc(-c3cnc(N)cc3C(F)(F)F)nc(N3CCOCC3)n2)CC1 [Compound 12f]

IC50 (PI3Kα; [5]): 30 to 300 nM
IC50 (PI3Kα; [3]): 162 ± 13.1 nM
SMILES: N#Cc1c(-c2cn[nH]c2)nc(N2CCOCC2)nc1N1CCOCC1 [Compound 17a]

IC50 (PI3Kα; [5]): 30 to 300 nM
IC50 (PI3Kα; [3]): 254 ± 26.9 nM
SMILES: N#Cc1c(-c2cccc3[nH]ncc23)nc(N2CCOCC2)nc1N1CCOCC1 [Compound 17b]

IC50 (PI3Kα; [3]): 1360 nM
SMILES: Cc1nn(C)cc1-c1nc(N2CCOCC2)nc(N2CCOCC2)c1C#N [Compound 17c]

IC50 range in SAR figure (PI3Kα) (PI3Kα; Figure 5 activity bins): no activity
IC50 (PI3Kα; [3]): > 10000 nM
SMILES: N#Cc1c(-c2cnn(C3CCNCC3)c2)nc(N2CCOCC2)nc1N1CCOCC1 [Compound 17d]
